Measurements published in US4190646A, “Polypeptide compositions and methods” (Sloan-Kettering Institute for Cancer Research, priority 1979, dated 1980).
Where a SMILES comes first, the peptide text is derived from it.

Tests used:
CR^+ B cells = assay: induction in vitro of CR+ B cell differentiation from CR- B cell precursors; type: cell-based, nu/nu mice; conditions: concentrations of 0.01 ng to 10 μg/ml
Description: To determine the activity and characteristics of the polypeptide, determinations were carried out on healthy 5-6 weeks nu/nu mice of both sexes, the mice being bred on a BALB/c background (thymocytes expressing Thy-1.2 surface antigen) and maintained under conventional conditions. For the antisera, anti Thy-1.2 sera were prepared in Thy-1 congenic mice.
For the induction in vitro of Thy-1^+ T cells or CR^+ B cell differentiation, the induction of thymocyte differentiation from prothymocytes in vitro was performed as described by Komuro and Boyse, (Lancet, 1, 740, 1973), using the acquisition of Thy-1.2 as a marker of T cell differentiation. The induction of CR^+ B cell differentiation from CR^- B cell precursors in vitro was performed under similar conditions using as the assay criterion, the capacity of CR^+ cells to bind sheep erythrocytes coated with subagglutinating quantities of rabbit antibody and nonlytic complement. Spleen cell populations from healthy nu/nu mice fractionated on discontinuous bovine serum albumin gradients were used as the source of both precursor types (Thy-1^- and CR^-) because they have few or no Thy-1^+ cells and low numbers of CR^+ cells.

[1] = test system: neuromuscular transmission; assay: neuromuscular transmission assessed by electromyography after injection; type: in vivo; conditions: mice, single injection of 10-100 μg peptide in saline intraperitoneally, 24 hours later
Description: To determine the effect of this peptide on neuromuscular transmission, mice were injected with 10-100 μg peptide in N saline intraperitoreally. Twenty-four hours later, neuromuscular transmission was assessed by electromyography as described in Lancet, Vol. 12, pps. 256-259, 1975.

[2] = activity compared with the basic pentapeptide of Example I, in Twomey solution; conditions: 1 μg/ml in 89% Twomey solution

Structure (SMILES) | induction of differentiation of CR+ B cells (CR^+ B cells) | neuromuscular transmission impairment by electromyography [1] | maximum activity compared with the basic pentapeptide of Example I [2] | minimum activity compared with the basic pentapeptide of Example I [2]
CC(C)[C@H](NC(=O)[C@H](CC(=O)O)NC(=O)[C@H](CCCCN)NC(=O)[C@@H](N)CCCNC(=N)N)C(=O)N[C@@H](Cc1ccc(O)cc1)C(=O)O [Example I, H2 N-ARG-LYS-ASP-VAL-TYR-COOH] (H-RKDVY-OH) | did not induce | detectable neuromuscular impairment |  | 
CC(C)[C@H](NC(=O)[C@H](CC(=O)O)NC(=O)[C@H](CCCCN)NC(=O)[C@@H](N)CCCNC(=N)N)C(=O)N[C@@H](Cc1ccc(O)cc1)C(N)=O [Example IV, H2 N-ARG-LYS-ASP-VAL-TYR-CONH2] (H-RKDVY-NH2) |  |  | 105% | 70%
